Assay results reported in article PMC3062530, “A Novel Mechanism of Programmed Cell Death in Bacteria by Toxin–Antitoxin Systems Corrupts Peptidoglycan Synthesis” (PLoS Biology, 2011).
pKi: −log10 of the molar value.

Assays:
MurA [1] = target: T1, MurA (Escherichia coli, UniProt P0A749); assay: coupled phosphate-release fluorescence assay (7-methylguanosine / purine nucleoside phosphorylase), global fit; assay type: biochemical; settings: 1 mM phosphoenolpyruvate, pH 7.5, 50 mM NaCl; global fit with UNAG-3P inhibition
T1 construct: purified enzyme

MurA [2] = target: T1, MurA; assay: as above; assay type: biochemical; settings: competitive with UNAG; 1 mM phosphoenolpyruvate, pH 7.5, 50 mM NaCl

T1 sequence (P0A749 whole entry): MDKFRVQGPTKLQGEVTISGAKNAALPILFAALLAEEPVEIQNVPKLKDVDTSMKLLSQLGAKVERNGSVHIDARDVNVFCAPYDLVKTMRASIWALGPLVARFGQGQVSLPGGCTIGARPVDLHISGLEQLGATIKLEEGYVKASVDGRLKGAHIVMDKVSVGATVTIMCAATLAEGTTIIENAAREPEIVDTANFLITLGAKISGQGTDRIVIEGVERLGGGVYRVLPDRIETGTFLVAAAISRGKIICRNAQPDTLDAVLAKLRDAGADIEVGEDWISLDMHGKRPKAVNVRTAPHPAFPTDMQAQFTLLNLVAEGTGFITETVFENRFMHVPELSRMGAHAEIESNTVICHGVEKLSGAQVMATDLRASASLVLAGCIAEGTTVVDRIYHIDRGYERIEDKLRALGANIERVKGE

Q: For `CC(=O)N[C@H]1[C@@H](OP(=O)(O)OP(=O)(O)OC[C@H]2O[C@@H](n3ccc(=O)[nH]c3=O)[C@H](O)[C@@H]2O)O[C@H](CO)[C@@H](O)[C@@H]1O` [UNAG], which Km (MurA [1]) is on record?
A: The Km was 15 µM.

Q: `CC(=O)N[C@H]1[C@@H](OP(=O)(O)OP(=O)(O)OC[C@H]2O[C@@H](n3ccc(=O)[nH]c3=O)[C@H](O)[C@@H]2O)O[C@H](CO)[C@@H](O)[C@@H]1OP(=O)(O)O` [UNAG-3P] was tested. Which pKi (MurA [2]) did it give?
A: The pKi was 5.15.
